Experimental data reported in US12186377B2, “Modulation of oxidative stress and amino acid metabolism for the treatment or prevention of diseases and disorders” (NEW YORK UNIVERSITY, priority 2019, dated 2025).
Entries after “also recorded” stand apart in the source; their conditions may differ. Where a name gives a salt, the structure may show the parent alone.

Key:
[1] = tested on: wildtype and Keap1 mutant Kras^G12D/+;p53^−/− lung adenocarcinoma cell lines; test: Cell proliferation assay (crystal violet), drug or amino acid deprived media; assay type: cell-based, mouse; conditions: for sensitivity of Keap1 wildtype cells to NEAA depletion under oxidant treatment: wildtype cells treated with oxidative stress agents; for rescue of cell growth under serine deprived conditions by supplementation: 0.5 mM NAC, 50 μM Trolox, 3 mM formate, 16 μM thymidine, FIG. 7A
Description: (§1) For cell proliferation assays conducted under different drug or media conditions as indicated, cells growing in DMEM were trypsinized, counted and plated into 12 well plate dishes (BD/Falcon) in 1 mL of RPMI media. […] For deprivation experiments, cells were washed with PBS and media was replaced with 1 mL of complete RPMI or RPMI lacking indicated amino acid and supplemented with 10% dialyzed FBS and cells were re-treated with indicated drugs. RPMI was prepared from a powder mix without amino acids (US Biological) according to manufacturer's instructions. All other amino acids besides those indicated were added to the RPMI mixture in the same concentrations present in RPMI-1640 formulation (Cellgro, Corning). Proliferation experiments were carried out for 5 days post drug treatment and collected by staining. Cells were stained with a 0.5% crystal violet (Fisher) solution in 20% methanol. Plates were then washed, dried, and crystal violet was eluted in 400 μL of 10% acetic acid.

[2] = tested on: wildtype vs Keap1 mutant Kras^G12D/+;p53^−/− lung adenocarcinoma cells; test: Cell viability assay (cell titer glo); assay type: cell-based, mouse
Description: For cell viability assays cells were plated in a white, opaque 96-well plate with clear bottom at a density of 1000 cells/well in RPMI or RPMI with modified amino acid content. After attachment, CB-839 (Selleck) or L-Asparaginase (AbCam) were added at the indicated concentrations. After 3 days, cell viability in the presence of all compounds was assessed by cell titer glo (Promega).

[3] = tested on: wildtype vs Keap1 mutant cells; test: GC/MS analysis of polar metabolites and stable isotope tracing in cells; assay type: cell-based, mouse; conditions: for serine and glycine synthesis from [U^13C]-D glucose: serine depleted conditions, 250 nM CB-839 or 6 mM glutamate, FIG. 7E
Description: For analysis of cells, 1×10^5 cells were seeded in 1 mL of RPMI-1640 in 12 well plates. […] Media was then replaced with fresh RPMI lacking serine or asparagine where indicated and supplement with 10% FBS. For tracing experiments media contained 11 mM [U^13C]-D-glucose, 2 mM [U^13C]-L-glutamine, 2 mM [α^15N]-L-glutamine, or 285 μM [U^13C]-L-serine (Cambridge Isotope Laboratory). Cells were treated with 250 nM CB-839 and cultured for 1-3 hours. Cells were washed 2× in ice cold saline and then collected by scraping in 250 μL of 80% (v/v) of ice cold methanol containing 1.4 μg/mL norvaline (Sigma Aldrich). Samples were vortexed for 10 min at 4° C. and then centrifuged at max speed for 5 minutes. Supernatant was transferred to fresh tubes and then dried in a speed vac. For analysis of mouse plasma, whole blood was collected at the time of sacrifice by a retro-orbital bleed with heparin coated capillary tubes (Fisher) into EDTA containing microcentrifuge tubes. Whole blood was centrifuged for 5 minutes at 1600 g. Cleared plasma was transferred to fresh tubes and 4 μL of plasma was then aliquoted and used for analysis. 80% (v/v) methanol containing 1.4 μg/mL norvaline was added to plasma and samples were then dried in a speed vac. […] After derivatization, samples were analyzed by GC-MS using an HP-5MS column (Agilent Technologies) in an Agilent Intuvo gas chromatograph coupled to an Agilent 5997B mass spectrometer. […]
The MS system operated under electron impact ionization at 70 eV and the MS source and quadrupole were held at 230° C. and 150° C. respectively the detector was used in scanning mode, and the scanned ion range was 10-650 m/z. Mass isotopomer distributions were determined by integrating the appropriate ion fragments for each metabolite (Lewis et al., 2014, Molecular cell 55, 253-263) using MATLAB (Mathworks) and an algorithm adapted from Fernandez and colleagues (Fernandez et al., 1996, Journal of mass spectrometry: JMS 31, 255-262) that corrects for natural abundance.

[4] = tested on: Keap1 mutant subcutaneous tumors; test: Subcutaneous tumor growth, Keap1 mutant tumors; assay type: in vivo, C57B6 mice
Description: (§2) 5×10^5 cells were implanted subcutaneously into C57B6 mice. Tumor volume was measured by caliper and volume was calculated (Length×Width^2×0.5). After tumor establishment phase (tumor volume ˜50 mm^3), animals were randomized and assigned to a treatment group. Animals either received an amino acid control diet, diet lacking both serine and glycine, or a diet lacking asparagine (Envigo and TestDiet), 200 mg/kg CB-839 or vehicle (Calithera) twice daily administered through oral gavage as previously described (Davidson et al., 2016, Cell Metab 23, 517-528), 60 U of L-Asparaginase (Abcam) or vehicle once daily administered through intraperitoneal injection as before (Knott et al., 2018, Nature 554, 378-381) or some treatment combination as indicated.

[5] = tested on: wildtype subcutaneous tumors; test: Subcutaneous tumor growth, wildtype tumors; assay type: in vivo, C57B6 mice
Description: as §2

[6] = tested on: wildtype vs Keap1 mutant Kras^G12D/+;p53^−/− lung adenocarcinoma cells; conditions: previously shown (Romero 2017; Sayin 2017); cited from earlier work
KPKJ wt and KPKJ V cells = test: Cell ROS level, DCFCA assay (FACS); assay type: cell-based, mouse; conditions: positive control
Description: TET+ stands for 3 days treatment of 1 μg/ml doxycycline for inducing shRNA expression. G6PD knockdown induces more ROS in Keap1 wildtype cells. Keap1 mutants show lower cell ROS. ROS level was measured by DCFCA assay. G6PD KO induces accumulation of ROS in Keap1 wildtype cells. Measured by FACS (DCFCA assay.) TET treatment 4 day before measuring. H2O2 positive control is about 200-fold increase.

[7] = tested on: LKR (Kras^G12D/+;p53^+/+) cell lines; test: Cell proliferation assay in media lacking serine or asparagine, LKR lines; assay type: cell-based, mouse; conditions: pre-treated with KI696 (11 μM printed elsewhere in the source), FIG. 5B
Description: as §1

[8] = tested on: murine Kras^G12D/+;p53^−/− pancreatic ductal adenocarcinoma cell line; test: Proliferation / viability of pancreatic cancer cell line; assay type: cell-based, mouse; conditions: pre-treated with 1 μM KI696; 0.036 U/mL L-asparaginase 3 days, FIG. 5C, 5D
Description: RPMI was prepared from a powder mix without amino acids (US Biological) according to manufacturer's instructions. All other amino acids besides those indicated were added to the RPMI mixture in the same concentrations present in RPMI-1640 formulation (Cellgro, Corning). Proliferation experiments were carried out for 5 days post drug treatment and collected by staining. Cells were stained with a 0.5% crystal violet (Fisher) solution in 20% methanol. Plates were then washed, dried, and crystal violet was eluted in 400 μL of 10% acetic acid.

[9] = Davies et al., 2016; cited from earlier work
[10] = tested on: KPKJ Vector (Keap1 KO) cells transduced with sgG6pd and sgPGD; test: Colony formation assay, metabolite rescue of G6PD KO / PGD KO cells; assay type: cell-based, mouse; conditions: FIG. 18
Text: Colony formation assay of KPKJ Vector (Keap1 KO) cells transduced with sgTom, sgG6pd and sgPGD, and rescued with several metabolites.

KP or KPK cells = test: Cell viability with exogenous heme/hemin after Alas1 knock-down/out; assay type: cell-based, mouse
Text: FIG. 36A depicts the cell viability of KP or KPK cells with guide RNAs against Alas1 or control in the presence of increasing amounts of Heme/Hemin.
FIG. 37A depicts a western blot validation of control or Alas1 targeting shRNAs in KP/KPK cells. FIG. 37B depicts the relative viability of KP/KPK cells in response to doxycycline inducible shRNA knockdown of Alas1.

KPK cells = test: Western blot of Alas1 and Hmox1 with exogenous heme/hemin; assay type: cell-based, mouse; conditions: increasing amounts of exogenous heme/hemin, FIG. 36B
[11] = tested on: cell lines with different genetic status of Keap1; test: Relative viability in response to succinylacetone; assay type: cell-based; conditions: dominant negative Keap1 alleles vs Keap1 mutant cells, FIG. 35B
Text: FIG. 35A depicts a western blot validation of various Keap1 cDNA constructs including WT and multiple mutants found in LUAD. FIG. 35B depicts the relative viability of cell lines with different genetic status of Keap1 in response to different concentrations of succinylacetone, an inhibitor of Alas1.

[12] = GC/MS plasma amino acid levels in tumor-bearing mice; assay type: in vivo; conditions: L-asparaginase vs asparagine deficient diet, FIG. 11A
Description: For analysis of cells, 1×10^5 cells were seeded in 1 mL of RPMI-1640 in 12 well plates. […] Media was then replaced with fresh RPMI lacking serine or asparagine where indicated and supplement with 10% FBS. For tracing experiments media contained 11 mM [U^13C]-D-glucose, 2 mM [U^13C]-L-glutamine, 2 mM [α^15N]-L-glutamine, or 285 μM [U^13C]-L-serine (Cambridge Isotope Laboratory). Cells were treated with 250 nM CB-839 and cultured for 1-3 hours. Cells were washed 2× in ice cold saline and then collected by scraping in 250 μL of 80% (v/v) of ice cold methanol containing 1.4 μg/mL norvaline (Sigma Aldrich). Samples were vortexed for 10 min at 4° C. and then centrifuged at max speed for 5 minutes. Supernatant was transferred to fresh tubes and then dried in a speed vac. For analysis of mouse plasma, whole blood was collected at the time of sacrifice by a retro-orbital bleed with heparin coated capillary tubes (Fisher) into EDTA containing microcentrifuge tubes. Whole blood was centrifuged for 5 minutes at 1600 g. Cleared plasma was transferred to fresh tubes and 4 μL of plasma was then aliquoted and used for analysis. […] After derivatization, samples were analyzed by GC-MS using an HP-5MS column (Agilent Technologies) in an Agilent Intuvo gas chromatograph coupled to an Agilent 5997B mass spectrometer. […]

[13] = 60 U once daily intraperitoneal, FIG. 9B

Compound: CC(=O)OC[C@H]1O[C@@H]([S-])[C@H](OC(C)=O)[C@@H](OC(C)=O)[C@@H]1OC(C)=O.CCP(CC)CC.[Au+] [Auranofin, 3,4,5-triacetyloxy-6-(acetyloxymethyl) oxane-2-thiolate; triethylphosphanium]
- sensitivity of Keap1 wildtype cells to NEAA depletion under oxidant treatment [1]: sensitized to NEAA depletion

Compound: CCCCS(=N)(=O)CCC(N)C(=O)O [BSO, L-buthionine-sulfoximine]
- sensitivity of Keap1 wildtype cells to NEAA depletion under oxidant treatment [1]: sensitized to NEAA depletion

Compound: O=C(Cc1cccc(OC(F)(F)F)c1)Nc1ccc(CCCCc2nnc(NC(=O)Cc3ccccn3)s2)nn1 [CB-839]
- effect of very low doses of CB-839 alone on cell growth ([2]; CB-839 alone): do not affect cell growth
- sensitivity to very low doses of CB-839 with L-asparaginase ([2]; Keap1 mutant cells, 0.1 U/mL L-asparaginase, FIG. 6I): increased sensitivity
- sensitivity to very low doses of CB-839 in reduced serine ([2]; Keap1 mutant cells, serine at 10% of normal concentration, FIG. 6J): increased sensitivity
- serine and glycine synthesis from [U^13C]-D glucose [3]: decrease in both serine and glycine synthesis
- growth of Keap1 mutant tumors, CB-839 alone ([4]; 200 mg/kg twice daily oral gavage, FIG. 9E): sensitive
- growth of Keap1 mutant tumors, CB-839 with −SG diet ([4]; compared to either monotherapy, FIG. 9E): further reduced Keap1 mutant tumor growth
- growth of wildtype tumors, CB-839 alone ([5]; 200 mg/kg twice daily oral gavage, FIG. 9F): no effect on wildtype tumor growth
- growth of wildtype tumors, CB-839 with −SG diet ([5]; diet lacking serine and glycine, FIG. 9F): strong synergistic effect and significantly reduced wildtype tumor growth; also recorded: strongly sensitizes Keap1 wildtype tumors to dietary restriction of serine and glycine
- sensitivity of Keap1 mutant cells to CB-839 [6]: highly sensitive

Compound: COC(=O)/C=C/C(=O)OC [DMF, di-methyl fumarate]
- sensitivity of Keap1 wildtype cells to NEAA depletion under oxidant treatment [1]: sensitized to NEAA depletion

Compound: OO [H2O2]
- cell ROS level increase (KPKJ wt and KPKJ V cells): about 200 fold

Compound: COc1cc([C@@H](CC(=O)O)c2ccc(C)c(CN3C[C@@H](C)Oc4ccccc4S3(=O)=O)c2)cc2nnn(C)c12 [KI696]
- proliferation in media lacking serine or asparagine, p53 wildtype LKR lines [7]: growth suppression
- growth upon serine deprivation or L-asparaginase treatment after Nrf2 activation [8]: robust growth suppression
- pharmacokinetics [9]: prevent its efficient use in vivo

Compound: CC(=O)N[C@@H](CS)C(=O)O [NAC, N-acetyl-L-cysteine]
- rescue of cell growth under serine deprived conditions by supplementation ([1]; Keap1 mutant cells): did not rescue cell growth
- G6PD KO rescue (colony formation) [10]: No rescue

Compound: Cc1c(C)c2c(c(C)c1O)CCC(C)(C(=O)O)O2 (stereo not shown) [Trolox]
- rescue of cell growth under serine deprived conditions by supplementation ([1]; Keap1 mutant cells): did not rescue cell growth
- G6PD KO rescue (colony formation) [10]: No rescue

Compound: O=C(O)CCC(=O)C(=O)O [a-KG]
- G6PD KO rescue (colony formation) [10]: can rescue G6PD KO cells; also recorded: Completely rescue

Compound: C[C@H](N)C(=O)O [alanine]
- proliferation on alanine supplementation ([1]; Keap1 mutant cells, RPMI 10% dialyzed FBS, FIG. 2D): increase in cancer cell proliferation

Compound: O=CO [formate]
- rescue of cell growth under serine deprived conditions by supplementation ([1]; Keap1 mutant cells): complete rescue of cell growth

Compound: N[C@@H](CCC(=O)O)C(=O)O [glutamate]
- intracellular glutamate levels ([3]; Keap1 mutant cells, 500 nM Erastin or 6 mM glutamate, FIG. 6B, 6C): significantly increased intracellular glutamate levels
- serine and glycine synthesis from [U^13C]-D glucose [3]: increase in both serine and glycine synthesis
- G6PD KO rescue (colony formation) [10]: can rescue G6PD KO cells; also recorded: Completely rescue

Compound: C=CC1=C(C)c2cc3[n-]c(cc4[n-]c(cc5nc(cc1n2)C(C)=C5C=C)c(C)c4CCC(=O)O)c(CCC(=O)O)c3C.[Fe+2] [heme/hemin]
- rescue of growth defects after shRNA knockdown of Alas1 (KP or KPK cells; KP/KPK cells, doxycycline inducible shRNA, FIG. 37B): completely rescues any growth defects
- exogenous heme needed to rescue growth (KP or KPK cells; Keap1-mutant (KPK) vs KP cells with guide RNAs against Alas1, FIG. 36A): require higher levels of exogenous heme to rescue growth
- Alas1 protein level (KPK cells): decrease Alas1
- Hmox1 protein level (KPK cells): increase Hmox1

Compound: CC(=O)CC(=O)CCC(=O)O [succinylacetone, 4,6-Dioxoheptanoic acid]
- relative viability in response to succinylacetone [11]: further sensitize Keap1 mutant cells to heme synthesis inhibition

Compound: Cc1cn([C@H]2C[C@H](O)[C@@H](CO)O2)c(=O)[nH]c1=O [thymidine]
- rescue of cell growth under serine deprived conditions by supplementation ([1]; Keap1 mutant cells): complete rescue of cell growth

Compound: L-asparaginase
- relative viability on L-asparaginase treatment ([2]; Keap1 mutant vs wildtype cells, RPMI, 3 days, FIG. 1D): increased sensitivity
- growth of Keap1 mutant tumors, L-asparaginase [4, 13]: blunted growth
- growth of Keap1 mutant tumors, L-asparaginase alone or with asparagine free diet ([4]; FIG. 9D): strongly blunts the growth
- growth of wildtype tumors, L-asparaginase [5, 13]: not wildtype tumors
- plasma levels of asparagine [12]: more effective at reducing plasma levels of asparagine than the asparagine diet
